PMC7772935, “Plant-Derived Compounds as a Tool for the Control of Gastrointestinal Nematodes: Modulation of Abamectin Pharmacological Action by Carvone” (Frontiers in Veterinary Science, 2020)
Marks after values point to notes of the source that are not given here.

Tests used:
[1] = system: bovine ileal explants; experiment: ABM accumulation in bovine ileal explants, modulation by R-CNE or IVM; type: in vitro ADME, cattle; conditions: 0.05 μM ABM; for Effect on ABM accumulation in intestinal explants: 3.33 mM R-CNE or 0.5 μM IVM, 15-60 min
Description: Cattle ileum samples were obtained from a local slaughterhouse ([…], Argentina) located 16 km away from the laboratory facilities.

[2] = system: P-gp; set-up: method as in PMID 16384552; conditions: read-out: Concentration that inhibited the activated ATPase activity by 50%; cited from earlier work
[3] = system: sheep intestine; set-up: method as in PMID 24611483; conditions: Ussing chambers; cited from earlier work
[4] = system: bovine ileal explants
Description: (§1) Data are expressed as mean ± standard deviation (SD). […] Differences were considered statistically significant at p < 0.05.

[5] = R-CNE plasma concentrations after oral administration to lambs; type: in vivo; conditions: Corriedale and Texel crossbreed, sheep, 100 mg/kg oral, four doses every 24 h, after each dose
Protocol: (§2) All the animals had free access to water. Lambs were assigned to three experimental groups.
R-CNE analysis was performed according the technique described by Tao and Pereira ([23]), with modifications. Aliquots of plasma (0.25 mL) were mixed with acetonitrile, agitated and centrifuged. Supernatants were injected into the HPLC system fitted with a Kromasil C18 column. The mobile phase was water/acetonitrile (40/60) at an isocratic flow of 1.3 mL/min. R-CNE was analyzed using a UV detector (Shimadzu, SPD-10A).
as §1

[6] = Undesirable effects after oral administration in the in vivo assay; conditions: lambs, R-CNE 100 mg/kg, four oral doses every 24 h
Description: as §2

[7] = system: Haemonchus contortus egg hatch; set-up: method as in PMID 28807309; conditions: in vitro; cited from earlier work
[8] = system: Haemonchus spp. eggs and larvae; set-up: method as in PMID 28807309; conditions: in vitro; cited from earlier work
[9] = ABM plasma disposition after oral administration to lambs; conditions: ABM 0.2 mg/kg oral, alone or with R-CNE 4 x 100 mg/kg every 24 h, mean ± SD, n = 8
Description: as §1

[10] = system: resistant gastrointestinal nematodes; experiment: Fecal egg count reduction test in naturally infected lambs; type: in vivo
Protocol: as §2
The fecal samples were analyzed to obtain the epg counts. The coprocultures were prepared with 10 g of feces from a pool of each experimental group obtained on days−1 and 14. The nematode genera and species were identified through the third-stage larvae recovered from the coprocultures ([24]). The fecal egg count reduction test (FECRT) was calculated using the Abbott's formula ([25]), with modifications: […]
where T1 and T2 are the arithmetic mean epg counts in the treated group on days 0 and 14, respectively, and C1 and C2 are the arithmetic mean epg counts in the control group on days 0 and 14, respectively. The 95% confidence intervals were calculated following Coles et al. ([26]).

[11] = system: P-gp transport; set-up: method as in PMID 25865432; conditions: cited from earlier work

**Q.** Which “Effect on ABM accumulation in intestinal explants” value [1] does the source give for `CC[C@H](C)[C@H]1O[C@]2(CC[C@@H]1C)C[C@@H]1C[C@@H](C/C=C(\C)[C@@H](O[C@H]3C[C@H](OC)[C@@H](O[C@H]4C[C@H](OC)[C@@H](O)[C@H](C)O4)[C@H](C)O3)[C@@H](C)/C=C/C=C3\CO[C@@H]4[C@H](O)C(C)=C[C@@H](C(=O)O1)[C@]34O)O2` [IVM, ivermectin] here?
**A.** significantly increased the accumulation of ABM in the intestinal explants at all incubation times

**Q.** And the IC50 [2]?
**A.** 2500 nM

**Q.** What about the “Increase of Rho123 absorption in the presence of the inhibitor” value [3] of the same molecule?
**A.** 69%

**Q.** Which “Effect on Rho123 concentrations in the intestinal explants” value ([4]; 3.33 mM R-CNE, 15, 30, 45, 60 min) does the source give for `C=C(C)C1CC=C(C)C(=O)C1` (centres unmarked) [R-CNE, 5-isopropenyl-2-methyl-2-cyclohexenone] here?
**A.** significantly increased Rho123 concentrations in the intestinal explants at all incubation times

**Q.** What about the “Rho123 concentration in intestinal explants, % higher than Rho123 incubated alone” value ([4]; 60 min of incubation, 3.33 mM R-CNE, 0.5 μM Rho123) of the same molecule?
**A.** 67 ± 21%

**Q.** And the “Effect on ABM accumulation in intestinal explants” value [1]?
**A.** increased the intestinal concentration of the synthetic anthelmintic ABM at 15 and 30 min of incubation

**Q.** And the “Intestinal concentration of ABM, % higher than control (ABM alone)” value ([1]; 30 min of incubation, 3.33 mM R-CNE)?
**A.** 28.1 ± 35.7%

**Q.** What about the Cmax [5] of the same molecule?
**A.** 1790 ± 598 ng/mL

**Q.** What about the “Undesirable effects after oral administration” value [6] of the same molecule?
**A.** no undesirable effects were observed

**Q.** And the 50% lethal concentration [7]?
**A.** 85 µg/mL

**Q.** And the “Concentrations necessary to obtain an efficacy >90%” value [8]?
**A.** 370 µg/mL

**Q.** Which “Accumulation rate of Rho123” value ([4]; male, Aberdeen Angus/Hereford crossbreed, cattle, 0.5 µM) does the source give for `COC(=O)c1ccccc1-c1c2ccc(=N)cc-2oc2cc(N)ccc12` [Rho123, Rhodamine 123] here?
**A.** 0.69 ± 0.19 ρg Rho/min/mg tissue

**Q.** For abamectin [ABM], which “AUC0−168h of ABM” value [9] is on record?
**A.** 815.67 ± 303.1

**Q.** What about the “Cmax of ABM” value [9] of the same molecule?
**A.** 16.20 ± 10.2^a μg/mL

**Q.** What about the “Tmax of ABM” value [9] of the same molecule?
**A.** 10.75 ± 9.6^a h

**Q.** What about the “T½ el (elimination half-life) of ABM” value [9] of the same molecule?
**A.** 28.04 ± 8.1^a h

**Q.** What about the “Mean epg counts Day 14” value ([10]; 14 days after oral administration, mean ± SD) of the same molecule?
**A.** 45 ± 121 epg

**Q.** What about the “Classification of drug efficacy according to Coles et al.” value ([10]; FECRT criteria) of the same molecule?
**A.** suspected of resistance

**Q.** What about the “Mean epg counts Day 0” value ([10]; before treatment, mean ± SD) of the same molecule?
**A.** 2,193 ± 858 epg

**Q.** And the “FECR (LCL-UCL)” value ([10]; day 14, 95% confidence limits)?
**A.** 94.9 (65.0-99.0) %

**Q.** What about the “Proportion of Haemonchus spp. in coprocultures after treatment” value ([10]; day 14, third-stage larvae) of the same molecule?
**A.** 88%

**Q.** And the “Proportion of Teladorsagia spp. in coprocultures after treatment” value ([10]; day 14, third-stage larvae)?
**A.** 12%

**Q.** And the “Concentrations necessary to inhibit P-gp transport, fold lower than to inhibit MRPs-mediated transport” value [11]?
**A.** 3 fold
